The values that follow come from ChEMBL document CHEMBL1130305, “The design and synthesis of orally active short duration spiroindane growth hormone secretagogues” (Bioorg Med Chem Lett, 1997).

Data set [1] in a line: half life was evaluated. It counts as ADME.
For data set [2], the system named is Canis familiaris. Nature of the data set: Compound was evaluated for the lowest dose where fourfold elevations over basal GH levels were observed in Beagle dog model after intravenous dose of 0.025 mpk and 0.125 mpk oral dose; 6/8. In kind it is functional, Canis lupus familiaris.
The species entered for data set [3] is Canis familiaris. The data set is described as follows: Compound was evaluated for the lowest dose where fourfold elevations over basal GH levels were observed in Beagle dog model after peroral dose of 0.25 mpk; 8/8. It counts as functional, Canis lupus familiaris.
The species named for data set [4] is Canis familiaris. Nature of the data set: Compound was evaluated for the lowest dose where fourfold elevations over basal GH levels were observed in Beagle dog model after peroral dose of 0.25 mpk; 2/5. In kind it is functional, Canis lupus familiaris.
Data set [5] is filed under the species Canis familiaris. The data set is described as follows: Compound was evaluated for the lowest dose where fourfold elevations over basal GH levels were observed in Beagle dog model after peroral dose of 0.5 mpk; 4/4. It counts as functional, Canis lupus familiaris.
A short description of data set [6]: Compound was evaluated for its bioavailability in the dogs. It counts as ADME, organism-based, Canis lupus familiaris. The conditions noted are these: dog, in vivo; read-out: Bioavailabiility.
Data set [7] is described as follows: Compound was evaluated for its bioavailability in the rats. It counts as ADME, organism-based. The conditions noted are these: rat, in vivo; read-out: Bioavailabiility.
Data set [8] can be described thus: Compound was evaluated for its absorption in the rats. It counts as ADME, organism-based. The conditions noted are these: rat, in vivo; read-out: Absorption.
Data set [9] concerns Canis familiaris. Nature of the data set: Compound was evaluated for percentage of growth hormone of day1 response, after chronic oral dosing at 0.5 mpk on day 4. It counts as functional, Canis lupus familiaris.
Data set [10] concerns Canis familiaris. The data set is described as follows: Compound was evaluated for percentage of growth hormone of day1 response, after chronic oral dosing at 1.0 mpk on day 4. In kind it is functional, Canis lupus familiaris.
The test system of data set [11] is Canis familiaris. The data set is described as follows: Compound was evaluated for the lowest dose where fourfold elevations over basal GH levels were observed in Beagle dog model after intravenous dose of 0.025 mpk and 0.125 mpk oral dose; 1/2. It counts as functional, Canis lupus familiaris.
The species named for data set [12] is Canis familiaris. The data set is described as follows: Compound was evaluated for the lowest dose where fourfold elevations over basal GH levels were observed in Beagle dog model after peroral dose of 0.25 mpk; 5/8. It counts as functional, Canis lupus familiaris.
Data set [13] concerns Canis familiaris. Nature of the data set: Compound was evaluated for percentage of increase in IGF-1 levels, after chronic oral dosing at 0.5 mpk on day 4. It counts as functional, Canis lupus familiaris.
The subject of data set [14] is Canis familiaris. The data set is described as follows: Compound was evaluated for percentage of increase in IGF-1 levels, after chronic oral dosing at 1.0 mpk on day 4. It counts as functional, Canis lupus familiaris.
The species entered for data set [15] is Canis familiaris. The data set is described as follows: Compound was evaluated for the lowest dose where fourfold elevations over basal GH levels were observed in Beagle dog model after peroral dose of 0.25 mpk; 1/1. It counts as functional, Canis lupus familiaris.
Data set [16] is filed under the species Canis familiaris. Nature of the data set: Compound was evaluated for the lowest dose where fourfold elevations over basal GH levels were observed in Beagle dog model after peroral dose of 0.5 mpk; 1/2. It counts as functional, Canis lupus familiaris.
For data set [17], the species on record is Canis familiaris. The data set is described as follows: Compound was evaluated for the lowest dose where fourfold elevations over basal GH levels were observed in Beagle dog model after peroral dose of 0.5 mpk; 2/2. It counts as functional, Canis lupus familiaris.

In [1], `CC(C)(N)C(=O)N[C@H](COCc1ccccc1)C(=O)N1CCC2(CC1)CN(S(C)(=O)=O)c1ccccc12.Cl` gave a half-life of 4.8 h. For the same compound, the results for the Responders in data set [2] and in [3] were 6 and 8, respectively.

Consider `CCOC(=O)C[C@@H]1CC2(CCN(C(=O)[C@@H](CCCc3ccccc3)NC(=O)C(C)(C)N)CC2)c2ccccc21.Cl`, for which the Responders was 2 in data set [4] and 4 in data set [5].

`CCOC(=O)[C@H]1CC2(CCN(C(=O)[C@@H](CCCc3ccccc3)NC(=O)C(C)(C)N)CC2)c2ccccc21.Cl`: the bioavailability in data set [6] turned out to be 11.8%; in data set [7] it was 4.5%. Also, in [8], the Fa is more than 50%. Moreover, the GH in data set [9] was 65%; in data set [10], 80%. Besides, the Responders in [11] worked out at 1; in data set [12], 5. The Increase was determined as 65% in data set [13] and 45% in data set [14].

In [1], `CC(C)(N)C(=O)N[C@H](CCCc1ccccc1)C(=O)N1CCC2(CC1)C[C@H](C(=O)O)c1ccccc12.Cl` showed a half-life of 1.7 h. In addition, the Responders in [15] and in data set [16] was 1 throughout.

For `CC(C)(N)C(=O)N[C@H](CCCc1ccccc1)C(=O)N1CCC2(CC1)C[C@@H](CC(=O)O)c1ccccc12.Cl`, the Responders in data set [17] is recorded as 2.
